Test results: patent US20090246292A1, “ANTIMICROBIAL FORMULATIONS COMPRISING A QUINONE AND A COPPER SALT” (priority 2006, published 2009)

Legend:
[1] = system: P. granulosum PRP-021; assay: Disc diffusion assay (DDA), also supplemented; format: cell-based; settings: 200 μg per disc
Description: (§1) The propionibacteria were cultured and maintained on Wilkins-Chalgren Anaerobe Medium (agar and broth) at pH 6.0; all cultures were incubated anaerobically at 37° C. for 72 hours.
(§2) A sterile paper disc was impregnated with a sample of the test compound in a suitable solvent and 30 minutes allowed for the solvents to evaporate (where possible). The disc was then placed on an agar plate onto which the test micro-organism had been inoculated. The plate was then incubated under the conditions described above, following which it was examined visually for signs of bacterial growth. […] The diameter of this zone of “inhibition” was measured using a ProtoCOL™ automated zone sizer (Synbiosis, Cambridge, UK).
(§3) For assays using Propionibacterium spp. strains the supplements used in the examples below were lipid (either Tween™ 80 or triolein, both at 1% v/v) and sodium chloride (100 mM).

[2] = system: P. acnes PRP-026; assay: Disc diffusion assay (DDA), also supplemented; format: cell-based, Propionibacterium acnes; settings: 200 μg per disc
Description: as §1, §2, §3

O.O.O.O.O.O=S(=O)([O-])[O-].[Cu+2] [Copper (II) sulphate pentahydrate]
DDA + salt [1]: 32.84 mm | DDA + lipid ([1]; 1% (v/v) triolein): 28.28 mm | DDA ([1]; single replicate): 27.67 mm | DDA ([1]; Table 12 series): 29.59 mm | DDA + salt [2]: 52.90 mm | DDA + lipid ([2]; 1% (v/v) triolein): 53.21 mm | DDA ([2]; single replicate): 51.08 mm | DDA ([2]; Table 12 series): 56.14 mm
